Source: patent US8426447B2, “Spiro-tricyclic ring compounds as beta-secretase modulators and methods of use” (Amgen Inc., priority 2008, dated 2013)

Tests used:
[1] = tested on: amyloid beta peptide (A-beta) in cerebrospinal fluid and brain; assay: In Vivo Inhibition of Beta-Secretase: reduction of A-beta levels in CSF and brain; conditions: 10 mpk, after 4 hrs, mouse or rat
From the text: Several animal models, including mouse, rat, dog, and monkey, may be used to screen for inhibition of beta-secretase activity in vivo following administration of a test compound sample. Animals used in this invention can be wild type, transgenic, or gene knockout animals. […] A separate group of animals receive 2% hydroxypropyl methylcellulose, 1% Tween80 alone, containing no test compound, and serve as a vehicle-control group. At the end of the test period, animals are sacrificed and brain tissues, plasma or cerebrospinal fluid are collected. […] Homogenates are centrifuged at 355,000 g, 4° C. for 30 minutes. CSF or brain supernatants are then analyzed for the presence of A-beta peptide by specific sandwich ELISA assays based on ECL (Electrochemiluminescence) technology. For example, rat Abeta40 is measured using biotinylated-4G8 (Signet) as a capture antibody and Fab40 (an in-house antibody specific to the C-terminal of Abeta40) as a detection antibody.

BACE1 [2] = target: T1, BACE1 (Homo sapiens, UniProt P56817); assay: In Vitro BACE Cell-based Assay (HEK cell assay): Aβ40 in conditioned medium of cells stably expressing Amyloid Precursor Protein, sandwich ELISA; conditions: read-out: HEK cell assay
Method in brief: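 Read-out is time-resolved fluorescence of Aβ40 in supernatant, captured by pAb40 and detected with biotinylated 6E10 plus Streptavidin-Europium. Cells stably expressing APP received compounds for 24 h over 10 concentrations starting at 100 μM or 10 μM, final DMSO 0.1%.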

BACE1 [3] = target: T1, BACE1; assay: In Vitro Enzymatic BACE FRET (Fluorescence Resonance Energy Transfer) Assay; type: biochemical; conditions: read-out: BACE1 FRET assay
Method in brief: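 Run in 0.05 M acetate pH 4.2 with 10% DMSO final and 100 uM genapol detergent below its CMC. Reaction was started with 50 nM FRET peptide substrate (fluorophore and quencher flanking the BACE cleavage site), incubated one hour, stopped with Tris to neutral pH, and fluorescence read.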

T1 sequence (P56817 46-501, species assumed): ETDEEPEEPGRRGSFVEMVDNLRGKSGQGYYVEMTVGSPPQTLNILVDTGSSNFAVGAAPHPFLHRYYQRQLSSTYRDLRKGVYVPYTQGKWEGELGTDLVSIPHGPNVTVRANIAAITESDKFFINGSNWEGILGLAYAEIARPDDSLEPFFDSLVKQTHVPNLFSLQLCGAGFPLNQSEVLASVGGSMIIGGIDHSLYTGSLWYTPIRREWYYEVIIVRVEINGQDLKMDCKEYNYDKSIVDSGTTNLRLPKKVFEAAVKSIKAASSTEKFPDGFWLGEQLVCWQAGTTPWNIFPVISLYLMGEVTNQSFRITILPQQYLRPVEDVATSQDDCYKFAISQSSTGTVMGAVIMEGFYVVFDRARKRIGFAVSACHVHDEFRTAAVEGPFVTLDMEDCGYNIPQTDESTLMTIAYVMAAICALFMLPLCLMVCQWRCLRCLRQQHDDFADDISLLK

Row | SMILES | IC50 (BACE1 [2]) | IC50 (BACE1 [3]) | percent reduction in CSF A-beta levels [1] | percent reduction in brain A-beta levels [1]
1 | CC(C)(C)COc1cnc2c(c1)[C@]1(COC(N)=N1)c1cc(-c3cccnc3)ccc1O2 [Example 744, (5S)-3-(2,2-dimethylpropoxy)-7-(3-pyridinyl)spiro[chromeno[2,3-b]pyridine-5,4′-[1,3]oxazol]-2′-amine] |  |  | 37% | 26%
2 | CC(C)(C)/C=C/c1ccc2c(c1)[C@]1(COC(N)=N1)c1cc(-c3cncnc3)ccc1O2 [compound 963] | < 100 nM | < 100 nM |  | 
3 | NC1=N[C@]2(CO1)c1cc(C3=CCNCC3)ccc1Oc1ccc(-c3cncnc3)cc12 [compound 964] | < 100 nM | < 100 nM |  | 
4 | CC1(COc2ccc3c(c2)[C@@]2(COC(N)=N2)c2cc(-c4ccccc4)cnc2O3)COC1 [compound 966, (5S)-7-((3-methyl-3-oxetanyl)methoxy)-3-phenylspiro[chromeno[2,3-b]pyridine-5,4′-[1,3]oxazol]-2′-amine] | < 100 nM | < 100 nM |  | 
5 | CC1(COc2ccc3c(c2)[C@@]2(COC(N)=N2)c2cc(C#CC4CC4)cnc2O3)COC1 [compound 967] | 100 to 1000 nM | < 100 nM |  | 
6 | CC(C)(C)OC(=O)N1CC=C(c2ccc3c(c2)[C@]2(COC(N)=N2)c2cc(-c4cncnc4)ccc2O3)CC1 [compound 968] | 100 to 1000 nM | < 100 nM |  | 
7 | NC1=N[C@@]2(CO1)c1cc(-c3cccnc3)ccc1Oc1ccc(-c3ccc(F)nc3)cc12 [compound 969] | < 100 nM | < 100 nM |  | 
8 | Cc1noc(C)c1-c1ccc2c(c1)[C@@]1(COC(N)=N1)c1cc(OCC(C)(C)C)ccc1O2 [compound 976] | > 5000 nM | 100 to 1000 nM |  | 
9 | COc1ncc(-c2ccc3c(c2)[C@@]2(COC(N)=N2)c2cc(OCC(C)(C)C)ccc2O3)cn1 [compound 977] | 1000 to 5000 nM | 100 to 1000 nM |  | 
10 | COC(C)(C)COc1ccc2c(c1)[C@]1(COC(N)=N1)c1cc(C#CC3CC3)ccc1O2 [compound 982] | 100 to 1000 nM | < 100 nM |  | 
11 | COC(C)(C)COc1ccc2c(c1)[C@@]1(COC(N)=N1)c1cc(-c3cccnc3)cnc1O2 [compound 983] | < 100 nM | < 100 nM |  | 
12 | CC(C)(C)CCOc1nccc2c1[C@]1(COC(N)=N1)c1cc(-c3cncnc3)ccc1O2 [compound 984] | 100 to 1000 nM | 100 to 1000 nM |  | 
13 | CC(C)(C)CCOc1nccc2c1[C@@]1(COC(N)=N1)c1cc(-c3cncnc3)ccc1O2 [compound 985] | > 5000 nM | 100 to 1000 nM |  | 
14 | NC1=N[C@@]2(CO1)c1cc(-c3cncnc3)ccc1Oc1cc(OCC(F)(F)F)c(F)cc12 [compound 987] | > 5000 nM | > 5000 nM |  | 
15 | NC1=N[C@@]2(CO1)c1cc(-c3cccnc3)ccc1Oc1ccc(Cl)nc12 [compound 988] | 1000 to 5000 nM | 1000 to 5000 nM |  | 
16 | NC1=N[C@@]2(CO1)c1cc(-c3cccnc3)ccc1Oc1ccc(-c3cccnc3)nc12 [compound 989] | 100 to 1000 nM | 100 to 1000 nM |  | 
17 | NC1=N[C@@]2(CO1)c1cc(-c3cncnc3)ccc1Oc1ccc(-c3ccc(F)nc3)cc12 [compound 991] | < 100 nM | < 100 nM |  | 
18 | CC(C)(C)COc1ccc2c(c1)[C@@]1(COC(N)=N1)c1cc(C(=O)N3CCCC3)ccc1O2 [compound 992] | 1000 to 5000 nM | 100 to 1000 nM |  | 
19 | COC(=O)/C=C/c1ccc2c(c1)[C@]1(COC(N)=N1)c1cc(-c3cncnc3)ccc1O2 [compound 993] | 100 to 1000 nM | < 100 nM |  | 
20 | CC(C)(C)OC(=O)/C=C/c1ccc2c(c1)[C@]1(COC(N)=N1)c1cc(-c3cncnc3)ccc1O2 [compound 994] | 1000 to 5000 nM | 100 to 1000 nM |  | 
21 | CC(C)(C)OC(=O)/C=C/c1ccc2c(c1)[C@]1(COC(N)=N1)c1cc(-c3cccnc3)ccc1O2 [compound 995] | 1000 to 5000 nM | 100 to 1000 nM |  | 
22 | CC(C)(C)COc1cc2c(cc1F)[C@]1(COC(N)=N1)c1cc(-c3cncnc3)ccc1O2 [compound 999] | > 5000 nM | 1000 to 5000 nM |  | 
23 | CC(C)(C)C#Cc1ccc2c(c1)[C@@]1(COC(N)=N1)c1cc(C#CC(C)(C)C)cnc1O2 [compound 1000] | 100 to 1000 nM | < 100 nM |  | 
24 | COC(C)(C)CCc1ccc2c(c1)[C@]1(COC(N)=N1)c1cc(-c3cccnc3)ccc1O2 [compound 1001] | < 100 nM | < 100 nM |  | 

Now from value to compound, other results behind:

Row | IC50 (BACE1 [2]) | IC50 (BACE1 [3]) | SMILES | percent reduction in CSF A-beta levels [1] | percent reduction in brain A-beta levels [1]
25 | < 100 nM | < 100 nM | N#Cc1cccc(-c2ccc3c(c2)[C@]2(COC(N)=N2)c2cc(-c4cccnc4)ccc2O3)c1 [compound 961] |  | 
26 | 100 to 1000 nM | < 100 nM | N#Cc1ccccc1-c1ccc2c(c1)[C@]1(COC(N)=N1)c1cc(-c3cccnc3)ccc1O2 [compound 962] |  | 
27 | > 5000 nM | 100 to 1000 nM | N#Cc1ccccc1Oc1ccc2c(c1)[C@]1(COC(N)=N1)c1cc(-c3cncnc3)ccc1O2 [compound 965] |  | 
28 | > 5000 nM | 100 to 1000 nM | CC(C)(C)COc1ccc2c(c1)[C@]1(COC(N)=N1)c1cc(-c3ccc(Br)nn3)ccc1O2 [compound 970] |  | 
29 | 1000 to 5000 nM | < 100 nM | CC(C)(C)COc1ccc2c(c1)[C@]1(COC(N)=N1)c1cc(-c3cncs3)ccc1O2 [compound 971] |  | 
30 | > 5000 nM | 100 to 1000 nM | CC(C)(C)COc1ccc2c(c1)[C@]1(COC(N)=N1)c1cc(-c3ccc(C#N)cc3)ccc1O2 [compound 972] |  | 
31 | 1000 to 5000 nM | 100 to 1000 nM | CC(=O)c1cccc(-c2ccc3c(c2)[C@@]2(COC(N)=N2)c2cc(OCC(C)(C)C)ccc2O3)c1 [compound 973] |  | 
32 | 1000 to 5000 nM | 100 to 1000 nM | CC(=O)c1ccccc1-c1ccc2c(c1)[C@@]1(COC(N)=N1)c1cc(OCC(C)(C)C)ccc1O2 [compound 974] |  | 
33 | 100 to 1000 nM | 100 to 1000 nM | CC(C)(C)COc1ccc2c(c1)[C@]1(COC(N)=N1)c1cc(-c3cnc4ccccn34)ccc1O2 [compound 975] |  | 
34 | 1000 to 5000 nM | 100 to 1000 nM | CC(C)(C)COc1ccc2c(c1)[C@]1(COC(N)=N1)c1cc(-c3c[nH]cn3)ccc1O2 [compound 978] |  | 
35 | 1000 to 5000 nM | 100 to 1000 nM | CC(C)(C)COc1ccc2c(c1)[C@]1(COC(N)=N1)c1cc(-c3ncc[nH]3)ccc1O2 [compound 979] |  | 
36 | 1000 to 5000 nM | 100 to 1000 nM | CC(C)(C)COc1ccc2c(c1)[C@]1(COC(N)=N1)c1cc(-c3ccc(=O)[nH]c3)ccc1O2 [compound 980] |  | 
37 | 1000 to 5000 nM | 100 to 1000 nM | N#CCOc1ccc2c(c1)[C@]1(COC(N)=N1)c1cc(-c3cccnc3)ccc1O2 [compound 981] |  | 
38 | 1000 to 5000 nM | 100 to 1000 nM | N#Cc1ccccc1Oc1ccc2c(c1)[C@]1(COC(N)=N1)c1cc(-c3cccnc3)ccc1O2 [compound 986] |  | 
39 | 1000 to 5000 nM | 100 to 1000 nM | CC(C)(C)COc1ccc2c(c1)[C@@]1(COC(N)=N1)c1cc(C#N)ccc1O2 [compound 990] |  | 
40 | > 5000 nM | > 5000 nM | CC(C)(C)OC(=O)/C=C/c1ccc2c(c1)[C@]1(COC(N)=N1)c1cc(Br)ccc1O2 [compound 996] |  | 
41 | > 5000 nM | > 5000 nM | N#Cc1ccccc1Oc1ccc2c(c1)[C@]1(COC(N)=N1)c1cc(Br)ccc1O2 [compound 997] |  | 
42 | < 100 nM | < 100 nM | Cc1cccc(-c2ccc3c(c2)[C@]2(COC(N)=N2)c2cc(-c4cncnc4)ccc2O3)c1 [compound 998] |  | 
